Molecular target: STING (Homo sapiens, UniProt Q86WV6, G230A/H232R/R293Q/R71H)
Experiment: STING reporter assay in THP1-Dual KO-IFNAR2 cells (2′3′cGAMP stimulation, luciferase reporter)
Type: cell-based
Conditions: 15 μM 2′3′cGAMP stimulation, 24 h, read-out: Pharmaron, THP1_IFNAR2 STING 24 h Luci Normalized: GeoMean EC50
Summary of the method: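 EC50 from secreted luciferase (QUANTI-Luc Plus luminescence of supernatant) after 24 h at 37 °C, 5% CO2. Cells: THP1-Dual KO-IFNAR2, treated with compound (0.0017-100 μM final) plus lipofected 2′3′cGAMP at 15 μM final.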

STING, sequence (Q86WV6 whole entry R71H/G230A/H232R/R293Q): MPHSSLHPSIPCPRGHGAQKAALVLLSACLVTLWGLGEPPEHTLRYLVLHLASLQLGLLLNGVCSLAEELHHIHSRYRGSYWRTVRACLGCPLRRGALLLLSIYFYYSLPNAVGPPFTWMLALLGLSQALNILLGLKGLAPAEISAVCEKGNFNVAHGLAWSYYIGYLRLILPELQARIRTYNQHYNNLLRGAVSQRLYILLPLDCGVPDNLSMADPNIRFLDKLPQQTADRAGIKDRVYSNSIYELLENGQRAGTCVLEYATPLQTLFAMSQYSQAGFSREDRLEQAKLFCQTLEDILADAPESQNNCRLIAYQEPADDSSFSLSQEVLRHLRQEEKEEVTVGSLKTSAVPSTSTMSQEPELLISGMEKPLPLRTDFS

## O=C(Nc1c[nH]c2ccc(O[C@H]3C[C@@H](c4ccc(C(F)(F)F)cc4)C3)cc12)C1CN(CC(F)(F)F)C1 [Compound 243, 1-(2,2,2-trifluoroethyl)-N-(5-(cis-3-(4-(trifluoromethyl)phenyl)cyclobutoxy)-1H-indol-3-yl)azetidine-3-carboxamide]
  EC50: 40 to 200 nM

## O=C(Nc1c[nH]c2ccc(O[C@H]3C[C@H](c4ccc(C(F)(F)F)cc4)C3)cc12)C1CN(CC(F)(F)F)C1 [Compound 244, 1-(2,2,2-trifluoroethyl)-N-(5-(trans-3-(4-(trifluoromethyl)phenyl)cyclobutoxy)-1H-indol-3-yl)azetidine-3-carboxamide]
  EC50: 40 to 200 nM

## CO[C@H]1C[C@@H](C(=O)Nc2c[nH]c3ccc(O[C@H]4C[C@@H](c5ccc(C(F)(F)F)cc5)C4)cc23)C1 [Compound 245, cis-3-methoxy-N-(5-(cis-3-(4-(trifluoromethyl)phenyl)cyclobutoxy)-1H-indol-3-yl)cyclobutane-1-carboxamide]
  EC50: 40 to 200 nM

## CO[C@H]1C[C@@H](C(=O)Nc2c[nH]c3ccc(O[C@H]4C[C@H](c5ccc(C(F)(F)F)cc5)C4)cc23)C1 [Compound 246, cis-3-methoxy-N-(5-(trans-3-(4-(trifluoromethyl)phenyl)cyclobutoxy)-1H-indol-3-yl)cyclobutane-1-carboxamide]
  EC50: 40 to 200 nM

## CC(=O)Nc1c[nH]c2ccc(OCc3ccc(C(F)(F)F)cc3)cc12 [Compound 247, N-(5-((4-(trifluoromethyl)benzyl)oxy)-1H-indol-3-yl)acetamide]
  EC50: 200 to 1000 nM

## CC(=O)Nc1c[nH]c2ccc(OCCc3ccc(C(F)(F)F)cc3)nc12 [Compound 248, N-(5-(4-(trifluoromethyl)phenethoxy)-1H-pyrrolo[3,2-b]pyridin-3-yl)acetamide]
  EC50: 1000 to 5000 nM

## O=C(Nc1c[nH]c2ccc(OCCc3ccc(C(F)(F)F)cc3)cc12)C1CC(F)(F)C1 [Compound 249, 3,3-difluoro-N-(5-(4-(trifluoromethyl)phenethoxy)-1H-indol-3-yl)cyclobutane-1-carboxamide]
  EC50: 200 to 1000 nM

## CC1(C(=O)Nc2c[nH]c3ccc(OCCc4ccc(C(F)(F)F)cc4)cc23)CC1 [Compound 251, 1-methyl-N-(5-(4-(trifluoromethyl)phenethoxy)-1H-indol-3-yl)cyclopropane-1-carboxamide]
  EC50: 40 to 200 nM

## O=C(Nc1c[nH]c2ccc(OCCc3ccc(C(F)(F)F)cc3)cc12)C1CC1 [Compound 252, N-(5-(4-(trifluoromethyl)phenethoxy)-1H-indol-3-yl)cyclopropanecarboxamide]
  EC50: 40 to 200 nM

## CC(=O)Nc1c[nH]c2ccc(OCCc3cnc(N4CCN(CC(F)(F)F)CC4)c(F)c3)cc12 [Compound 253, N-(5-(2-(5-fluoro-6-(4-(2,2,2-trifluoroethyl)piperazin-1-yl)pyridin-3-yl)ethoxy)-1H-indol-3-yl)acetamide]
  EC50: 1000 to 5000 nM

## CC(=O)Nc1c[nH]c2ccc(OCCc3cnc(N4CCC(F)(F)CC4)c(F)c3)cc12 [Compound 254, N-(5-(2-(6-(4,4-difluoropiperidin-1-yl)-5-fluoropyridin-3-yl)ethoxy)-1H-indol-3-yl)acetamide]
  EC50: 40 to 200 nM

## CC(=O)Nc1c[nH]c2ccc(CCOc3ccc(C(F)(F)F)cc3)nc12 [Compound 255, N-(5-(2-(4-(trifluoromethyl)phenoxy)ethyl)-1H-pyrrolo[3,2-b]pyridin-3-yl)acetamide]
  EC50: 1000 to 5000 nM

## CC(=O)Nc1c[nH]c2ccc(CCSc3ccc(C(F)(F)F)cc3)cc12 [Compound 256, N-(5-(2-((4-(trifluoromethyl)phenyl)thio)ethyl)-1H-indol-3-yl)acetamide]
  EC50: 200 to 1000 nM

## CC(=O)Nc1c[nH]c2ccc(OCCC3CCN(c4ccc(C(F)(F)F)cn4)CC3)cc12 [Compound 257, N-(5-(2-(1-(5-(trifluoromethyl)pyridin-2-yl)piperidin-4-yl)ethoxy)-1H-indol-3-yl)acetamide]
  EC50: 200 to 1000 nM

## COCC(=O)Nc1c[nH]c2ccc(O[C@H]3C[C@H](c4ccc(C(F)(F)F)cc4)C3)cc12 [Compound 258, 2-methoxy-N-(5-(trans-3-(4-(trifluoromethyl)phenyl)cyclobutoxy)-1H-indol-3-yl)acetamide]
  EC50: 40 to 200 nM

## CC(=O)Nc1c[nH]c2c(C)cc(CCOc3ccc(C(F)(F)F)cc3)nc12 [Compound 259, N-(7-methyl-5-(2-(4-(trifluoromethyl)phenoxy)ethyl)-1H-pyrrolo[3,2-b]pyridin-3-yl)acetamide]
  EC50: 1000 to 5000 nM

## COCC(=O)Nc1c[nH]c2ccc(O[C@H]3C[C@@H](c4ccc(C(F)(F)F)cc4)C3)cc12 [Compound 260, 2-methoxy-N-(5-(cis-3-(4-(trifluoromethyl)phenyl)cyclobutoxy)-1H-indol-3-yl)acetamide]
  EC50: 200 to 1000 nM

## CC1(C(=O)Nc2c[nH]c3ccc(O[C@H]4C[C@H](c5ccc(C(F)(F)F)cc5)C4)cc23)CC1 [Compound 261, 1-methyl-N-(5-(trans-3-(4-(trifluoromethyl)phenyl)cyclobutoxy)-1H-indol-3-yl)cyclopropane-1-carboxamide]
  EC50: 40 to 200 nM

## CC(=O)Nc1c[nH]c2ccc(OCCC34CC(c5ccccc5)(C3)C4)cc12 [Compound 262, N-(5-(2-(3-phenylbicyclo[1.1.1]pentan-1-yl)ethoxy)-1H-indol-3-yl)acetamide]
  EC50: 40 to 200 nM

## CC1(C(=O)Nc2c[nH]c3ccc(O[C@H]4C[C@@H](c5ccc(C(F)(F)F)cc5)C4)cc23)CC1 [Compound 263, 1-methyl-N-(5-(cis-3-(4-(trifluoromethyl)phenyl)cyclobutoxy)-1H-indol-3-yl)cyclopropane-1-carboxamide]
  EC50: 200 to 1000 nM

## CC(=O)Nc1c[nH]c2c(C)cc(CCOc3ccc(C(F)(F)F)cc3)cc12 [Compound 264, N-(7-methyl-5-(2-(4-(trifluoromethyl)phenoxy)ethyl)-1H-indol-3-yl)acetamide]
  EC50: 1000 to 5000 nM

## CC(=O)Nc1c[nH]c2ccc(CNS(=O)(=O)c3ccc(C(F)(F)F)cc3)cc12 [Compound 265, N-(5-(((4-(trifluoromethyl)phenyl)sulfonamido)methyl)-1H-indol-3-yl)acetamide]
  EC50: 5000 to 100000 nM

## O=C(Nc1c[nH]c2ccc(O[C@H]3C[C@@H](c4ccc(C(F)(F)F)cc4)C3)cc12)C1CC1 [Compound 266, N-(5-(cis-3-(4-(trifluoromethyl)phenyl)cyclobutoxy)-1H-indol-3-yl)cyclopropanecarboxamide]
  EC50: 40 to 200 nM

## CC(=O)Nc1c[nH]c2ncc(OCCc3ccc(C(F)(F)F)cc3)cc12 [Compound 267, N-(5-(4-(trifluoromethyl)phenethoxy)-1H-pyrrolo[2,3-b]pyridin-3-yl)acetamide]
  EC50: 1000 to 5000 nM

## CC(=O)Nc1c[nH]c2ccc(COCC3CCN(CC(F)(F)F)CC3)cc12 [Compound 268, N-(5-(((1-(2,2,2-trifluoroethyl)piperidin-4-yl)methoxy)methyl)-1H-indol-3-yl)acetamide]
  EC50: 1000 to 5000 nM

## CC(=O)Nc1c[nH]c2c(F)cc(CCOc3ccc(C(F)(F)F)cc3)cc12 [Compound 270, N-(7-fluoro-5-(2-(4-(trifluoromethyl)phenoxy)ethyl)-1H-indol-3-yl)acetamide]
  EC50: 1000 to 5000 nM

## CC(=O)Nc1c[nH]c2ncc(COCc3ccc(C(F)(F)F)cc3)cc12 [Compound 271, N-(5-(((4-(trifluoromethyl)benzyl)oxy)methyl)-1H-pyrrolo[2,3-b]pyridin-3-yl)acetamide]
  EC50: 1000 to 5000 nM

## CC(=O)Nc1c[nH]c2c(C)cc(COCc3ccc(C(F)(F)F)cc3)cc12 [Compound 272, N-(7-methyl-5-(((4-(trifluoromethyl)benzyl)oxy)methyl)-1H-indol-3-yl)acetamide]
  EC50: 1000 to 5000 nM

## COCC(=O)Nc1c[nH]c2ccc(COc3ccc(C(F)(F)F)cc3)cc12 [Compound 273, 2-methoxy-N-(5-((4-(trifluoromethyl)phenoxy)methyl)-1H-indol-3-yl)acetamide]
  EC50: 40 to 200 nM

## CC(=O)Nc1c[nH]c2ccc(COC[C@@H]3[C@H]4CN(CC(F)(F)F)C[C@@H]34)cc12 [Compound 274, N-(5-((((1R,5S,6r)-3-(2,2,2-trifluoroethyl)-3-azabicyclo[3.1.0]hexan-6-yl)methoxy)methyl)-1H-indol-3-yl)acetamide]
  EC50: 1000 to 5000 nM

## CC(=O)Nc1c[nH]c2ccc(CCC(C)(C)C3CCN(CC(F)(F)F)CC3)cc12 [Compound 275, N-(5-(3-methyl-3-(1-(2,2,2-trifluoroethyl)piperidin-4-yl)butyl)-1H-indol-3-yl)acetamide]
  EC50: 1000 to 5000 nM

## CC(=O)Nc1c[nH]c2c(F)cc(COCc3ccc(C(F)(F)F)cc3)cc12 [Compound 276, N-(7-fluoro-5-(((4-(trifluoromethyl)benzyl)oxy)methyl)-1H-indol-3-yl)acetamide]
  EC50: 1000 to 5000 nM

## CC(=O)Nc1c[nH]c2c(F)cc(OCCC3CCN(CC(F)(F)F)CC3)cc12 [Compound 277, N-(7-fluoro-5-(2-(1-(2,2,2-trifluoroethyl)piperidin-4-yl)ethoxy)-1H-indol-3-yl)acetamide]
  EC50: 5000 to 100000 nM

## CC(=O)Nc1c[nH]c2ccc(OCCC3(O)CCC(F)(F)CC3)cc12 [Compound 278, N-(5-(2-(4,4-difluoro-1-hydroxycyclohexyl)ethoxy)-1H-indol-3-yl)acetamide]
  EC50: 5000 to 100000 nM

## CC(=O)Nc1c[nH]c2c(C)cc(OCCC3CCN(CC(F)(F)F)CC3)cc12 [Compound 281, N-(7-methyl-5-(2-(1-(2,2,2-trifluoroethyl)piperidin-4-yl)ethoxy)-1H-indol-3-yl)acetamide]
  EC50: 5000 to 100000 nM

## CC(=O)Nc1c[nH]c2ccc(C(O)CCc3ccc(C(F)(F)F)cc3)cc12 (stereo not shown) [Compound 282, N-(5-(1-hydroxy-3-(4-(trifluoromethyl)phenyl)propyl)-1H-indol-3-yl)acetamide]
  EC50: 1000 to 5000 nM

## CC(=O)Nc1c[nH]c2ccc(OCC[C@@H]3C[C@@H]4CN(CC(F)(F)F)C[C@@H]4C3)cc12 [Compound 283, N-(5-(2-((3aR,5r,6aS)-2-(2,2,2-trifluoroethyl)octahydrocyclopenta[c]pyrrol-5-yl)ethoxy)-1H-indol-3-yl)acetamide]
  EC50: 200 to 1000 nM

From US12503436B2, “Compounds and compositions for treating conditions associated with STING activity” (NOVARTIS PHARMA AG, priority 2021, dated 2025)
